The text below walks through data of PubChem BioAssay (NCI).

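96-well plates; 48 h exposure; 5 concentrations. Endpoints by linear interpolation between flanking doses. Not reached: highest tested concentration assigned. TGI: total growth inhibition.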 Bounds are passed on as bounds.

Among the test systems are UACC-257 melanoma; HT29 colon; 786-0 renal; SW-620 colon; RXF 393 renal; SK-MEL-28 melanoma; OVCAR-4 ovarian; EKVX NSCLC; RPMI-8226 leukemia; U251 CNS.
What all share (test): NCI anticancer screen, dose series, 48 h

Take `O=S1(=O)CCN(Cc2ccccn2)CC1`: the TGI with UACC-257 melanoma, with HT29 colon, with 786-0 renal, with SW-620 colon, in the assay with RXF 393 renal and in the assay with SK-MEL-28 melanoma was above 100 µM throughout. For the same compound, the TGI with OVCAR-4 ovarian, in the assay on EKVX NSCLC, in the assay on RPMI-8226 leukemia and with U251 CNS was above 100 µM throughout.

As to `COC(=O)c1ccccc1NC(=O)/C(=N\NC(C)(C)C)C(C#N)c1nc(-c2ccc([N+](=O)[O-])cc2)cs1` (stereo not given), the TGI in the assay with UACC-257 melanoma, in the assay on HT29 colon, in the assay with 786-0 renal, in the assay on SW-620 colon, in the assay on RXF 393 renal and in the assay with SK-MEL-28 melanoma was above 100 µM throughout. Besides, the TGI in the assay on OVCAR-4 ovarian, in the assay with EKVX NSCLC, in the assay on RPMI-8226 leukemia and in the assay with U251 CNS was above 100 µM in each case.

In the case of `CC(=O)O[C@@H]1CO[C@H]2O[C@H]3[C@@H](C(C=O)=C[C@H](O)[C@@H]4C5=C(C(C)C)CC[C@]5(C)CC[C@@]34C)[C@@]2(O)C1=O`, the TGI in the assay on UACC-257 melanoma was determined as 0.629 µM; in the assay on HT29 colon it was 0.471 µM; in the assay with 786-0 renal it was 0.253 µM; in the assay with SW-620 colon it was 0.213 µM; in the assay with RXF 393 renal, 0.362 µM; in the assay with SK-MEL-28 melanoma it was 0.771 µM. In addition, the TGI stood at 0.943 µM in the assay with OVCAR-4 ovarian, 1.28 µM with EKVX NSCLC, 1.6 µM in the assay with RPMI-8226 leukemia and 0.55 µM in the assay on U251 CNS.
